From US8993756B2 (Merck Sharp & Dohme Corp., priority 2011, dated 2015)

How the values were obtained:
JAK3 = JAK3 (Homo sapiens (Human), UniProt P52333); test: Jak Biochemical HTRF Assay (JAK3); settings: recombinant GST-tagged catalytic domain, [ATP] 2.9 μM
JAK2 = JAK2 (Homo sapiens (Human), UniProt O60674); test: Jak Biochemical HTRF Assay (JAK2); settings: recombinant GST-tagged catalytic domain, [ATP] 8.5 μM
JAK2, sequence (O60674 849-1124): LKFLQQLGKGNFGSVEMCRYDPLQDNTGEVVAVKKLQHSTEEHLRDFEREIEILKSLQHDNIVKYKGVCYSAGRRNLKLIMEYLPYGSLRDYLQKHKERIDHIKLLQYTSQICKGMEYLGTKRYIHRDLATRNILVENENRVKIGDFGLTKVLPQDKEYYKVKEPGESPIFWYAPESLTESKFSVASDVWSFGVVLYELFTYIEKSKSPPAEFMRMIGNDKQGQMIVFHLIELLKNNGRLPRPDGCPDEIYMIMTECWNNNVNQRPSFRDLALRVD

JAK3, sequence (P52333 822-1111): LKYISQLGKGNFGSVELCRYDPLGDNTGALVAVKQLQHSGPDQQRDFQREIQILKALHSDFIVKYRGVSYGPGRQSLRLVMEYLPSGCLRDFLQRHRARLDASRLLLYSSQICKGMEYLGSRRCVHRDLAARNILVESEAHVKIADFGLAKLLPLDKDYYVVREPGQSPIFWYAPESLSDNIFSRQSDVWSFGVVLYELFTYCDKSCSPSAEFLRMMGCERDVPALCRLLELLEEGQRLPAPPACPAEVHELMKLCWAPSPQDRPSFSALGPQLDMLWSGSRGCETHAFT

Compound | IC50 (JAK3) | IC50 (JAK2) | IC50 (JAK3; given as range class) | IC50 (JAK2; given as range class)
C=C(C)C(=O)Nc1cc(-c2ncnc3[nH]cc(C(=O)OCC)c23)ccn1 [Example 4-35, ethyl 4-{2-[(2-methylacryloyl)amino]pyridin-4-yl}-7H-pyrrolo[2,3-d]pyrimidine-5-carboxylate] | 0.049 nM | > 1500 nM | – | –
CCOC(=O)c1c[nH]c2ncnc(-c3ccc(O)cc3)c12 [Example 1-35, ethyl 4-(4-hydroxyphenyl)-7H-pyrrolo[2,3-d]pyrimidine-5-carboxylate] | 5.7 nM | 134 nM | – | –
CCOC(=O)c1c[nH]c2ncnc(-c3ccc(C(=O)OC)cc3)c12 [Example 1-9, ethyl 4-[4-(methoxycarbonyl)phenyl]-7H-pyrrolo[2,3-d]pyrimidine-5-carboxylate] | – | – | 10 to 500 nM | > 500 nM
C=C(C)C(=O)Nc1cc(-c2ncnc3[nH]cc(C(=O)OCC)c23)cc(OC)n1 [Example 4-4, Ethyl 4-{2-methoxy-6-[(2-methylacryloyl)amino]pyridin-4-yl}-7H-pyrrolo[2,3-d]pyrimidine-5-carboxylate] | 0.049 nM | > 1500 nM | – | –
C=C(C)C(=O)Nc1cc(-c2ncnc3[nH]cc(C(=O)OCC)c23)ccc1C(=O)N(C)C [Example 4-28, ethyl 4-{4-(dimethylcarbamoyl)-3-[(2-methylacryloyl)amino]phenyl}-7H-pyrrolo[2,3-d]pyrimidine-5-carboxylate] | 1.5 nM | > 1500 nM | – | –
CCOC(=O)c1c[nH]c2ncnc(-c3cccc(-n4cccn4)c3)c12 [Example 1-103, ethyl 4-[3-(1H-pyrazol-1-yl)phenyl]-7H-pyrrolo[2,3-d]pyrimidine-5-carboxylate] | – | – | 10 to 500 nM | > 500 nM
C=CC(=O)Nc1cccc(-c2ncnc3[nH]cc(C(=O)OCC)c23)c1C [Example 4-12, ethyl 4-[3-(acryloylamino)-2-methylphenyl]-7H-pyrrolo[2,3-d]pyrimidine-5-carboxylate] | 0.19 nM | > 1500 nM | – | –
CCOC(=O)c1c[nH]c2ncnc(-c3cccc4c3CCCNC4=O)c12 [Example 1-68, ethyl 4-(1-oxo-2,3,4,5-tetrahydro-1H-2-benzazepin-6-yl)-7H-pyrrolo[2,3-d]pyrimidine-5-carboxylate] | – | – | 10 to 500 nM | > 500 nM
CCOC(=O)c1c[nH]c2ncnc(-c3ccc4ccccc4c3)c12 [Example 1-40, ethyl 4-naphthalen-2-yl-7H-pyrrolo[2,3-d]pyrimidine-5-carboxylate] | 8.8 nM | 186 nM | – | –
CCOC(=O)c1c[nH]c2ncnc(-c3cccc(NC(=O)CC)c3)c12 [Example 4-7, ethyl 4-[3-(propanoylamino)phenyl]-7H-pyrrolo[2,3-d]pyrimidine-5-carboxylate] | – | – | 10 to 500 nM | > 500 nM
C=C(C)C(=O)Nc1cccc(-c2ncnc3[nH]cc(C4CCOCC4)c23)c1 [Example 23, N-(3-(5-(Tetrahydro-2H-pyran-4-yl)-7H-pyrrolo[2,3-d]pyrimidin-4-yl)phenyl)methacrylamide] | 8.3 nM | > 1500 nM | – | –
CCOC(=O)c1c[nH]c2ncnc(-c3ccc4c(c3)CN(C(=O)OC(C)(C)C)C4=O)c12 [Example 1-77, ethyl 4-[2-(tert-butoxycarbonyl)-1-oxo-2,3-dihydro-1H-isoindol-5-yl]-7H-pyrrolo[2,3-d]pyrimidine-5-carboxylate] | – | – | 10 to 500 nM | > 500 nM
C=CC(=O)Nc1cccc(-c2ncnc3[nH]cc(C(=O)OCC)c23)c1 [Example 4-5, ethyl 4-[3-(acryloylamino)phenyl]-7H-pyrrolo[2,3-d]pyrimidine-5-carboxylate] | 0.04 nM | 790 nM | – | –
CCOC(=O)c1c[nH]c2ncnc(-c3cnn(CCS(C)(=O)=O)c3)c12 [Example 1-92, ethyl 4-{1-[2-(methylsulfonyl)ethyl]-1H-pyrazol-4-yl}-7H-pyrrolo[2,3-d]pyrimidine-5-carboxylate] | – | – | 10 to 500 nM | > 500 nM
CCOC(=O)c1c[nH]c2ncnc(-c3ccccc3Cl)c12 [Example 1-43, ethyl 4-(2-chlorophenyl)-7H-pyrrolo[2,3-d]pyrimidine-5-carboxylate] | – | – | 10 to 500 nM | > 500 nM
CCOC(=O)c1c[nH]c2ncnc(-c3ccsc3)c12 [Example 1-57, ethyl 4-thiophen-3-yl-7H-pyrrolo[2,3-d]pyrimidine-5-carboxylate] | – | – | 10 to 500 nM | 10 to 500 nM
CCOC(=O)c1c[nH]c2ncnc(-c3ccn[nH]3)c12 [Example 1-81, ethyl 4-(1H-pyrazol-5-yl)-7H-pyrrolo[2,3-d]pyrimidine-5-carboxylate] | – | – | 10 to 500 nM | > 500 nM
C=CCOC(=O)c1c[nH]c2ncnc(-c3ccc4cn(C)nc4c3)c12 [Example 2-2, Prop-2-en-1-yl 4-(2-methyl-2H-indazol-6-yl)-7H-pyrrolo[2,3-d]pyrimidine-5-carboxylate] | – | – | 10 to 500 nM | 10 to 500 nM
CCOC(=O)c1c[nH]c2ncnc(-c3ccncc3)c12 [Example 1-14, ethyl 4-pyridin-4-yl-7H-pyrrolo[2,3-d]pyrimidine-5-carboxylate] | – | – | 10 to 500 nM | > 500 nM

Continued, values first:

IC50 (JAK3) | IC50 (JAK2) | IC50 (JAK3; given as range class) | IC50 (JAK2; given as range class) | Compound
– | – | 10 to 500 nM | > 500 nM | CCOC(=O)c1c[nH]c2ncnc(-c3cccc(NC(=O)/C=C/c4ccc(OC)cc4)c3)c12 [Example 5-29, ethyl 4-(3-{[(2E)-3-(4-methoxyphenyl)prop-2-enoyl]amino}phenyl)-7H-pyrrolo[2,3-d]pyrimidine-5-carboxylate]
– | – | 10 to 500 nM | > 500 nM | CC/C=C(\C)C(=O)Nc1cccc(-c2ncnc3[nH]cc(C(=O)OCC)c23)c1 [Example 5-25, ethyl 4-(3-{[(2E)-2-methylpent-2-enoyl]amino}phenyl)-7H-pyrrolo[2,3-d]pyrimidine-5-carboxylate]
3.9 nM | 496 nM | – | – | CCOC(=O)c1c[nH]c2ncnc(-c3cccc(NC(=O)/C=C/c4nccs4)c3)c12 [Example 5-39, ethyl 4-(3-{[(2E)-3-(1,3-thiazol-2-yl)prop-2-enoyl]amino}phenyl)-7H-pyrrolo[2,3-d]pyrimidine-5-carboxylate]
– | – | 10 to 500 nM | > 500 nM | CCOC(=O)c1c[nH]c2ncnc(-c3cccc(C(=O)NCC#N)c3)c12 [Example 8-1]
0.024 nM | > 1500 nM | – | – | C=C(CF)C(=O)Nc1cccc(-c2ncnc3[nH]cc(C(=O)OCC)c23)c1 [Example 15-1, Ethyl-4-(3-{[2-(fluoromethyl)acryloyl]amino}phenyl)-7H-pyrrolo[2,3-d]pyrimidine-5-carboxylate]
– | – | 10 to 500 nM | > 500 nM | CCOC(=O)c1c[nH]c2ncnc(-c3cccc(NC(=O)/C(F)=C/c4ccccc4)c3)c12 [Example 5-26, ethyl 4-(3-{[(2Z)-2-fluoro-3-phenylprop-2-enoyl]amino}phenyl)-7H-pyrrolo[2,3-d]pyrimidine-5-carboxylate]
– | – | 10 to 500 nM | > 500 nM | CCOC(=O)c1c[nH]c2ncnc(-c3cccc(NC(=O)/C=C/c4cccs4)c3)c12 [Example 5-21, ethyl 4-(3-{[(2E)-3-thiophen-2-ylprop-2-enoyl]amino}phenyl)-7H-pyrrolo[2,3-d]pyrimidine-5-carboxylate]
– | – | 10 to 500 nM | > 500 nM | C/C=C(\C)C(=O)Nc1cccc(-c2ncnc3[nH]cc(C(=O)OCC)c23)c1 [Example 5-31, ethyl 4-(3-{[(2E)-2-methylbut-2-enoyl]aminol}phenyl)-7H-pyrrolo[2,3-d]pyrimidine-5-carboxylate]
– | – | 10 to 500 nM | 10 to 500 nM | CCOC(=O)c1c[nH]c2ncnc(-c3cccc(NC(=O)CC#N)c3)c12 [Example 5-4, ethyl 4-{3-[(cyanoacetyl)amino]phenyl}-7H-pyrrolo[2,3-d]pyrimidine-5-carboxylate]
– | – | 10 to 500 nM | > 500 nM | CC/C=C/C(=O)Nc1cccc(-c2ncnc3[nH]cc(C(=O)OCC)c23)c1 [Example 5-33, ethyl 4-{3-[(2E)-pent-2-enoylamino]phenyl}-7H-pyrrolo[2,3-d]pyrimidine-5-carboxylate]
0.016 nM | > 1500 nM | – | – | C=CC(=O)Nc1cccc(-c2ncnc3[nH]cc(-c4ccccc4)c23)c1 [Example 20-9, N-[3-(5-phenyl-7H-pyrrolo[2,3-d]pyrimidin-4-yl)phenyl]prop-2-enamide]
– | – | 10 to 500 nM | > 500 nM | CCOC(=O)c1c[nH]c2ncnc(-c3cccc(NC(=O)C4=COCCO4)c3)c12 [Example 5-13, ethyl 4-{3-[(5,6-dihydro-1,4-dioxin-2-ylcarbonyl)amino]phenyl}-7H-pyrrolo[2,3-d]pyrimidine-5-carboxylate]
0.024 nM | > 1500 nM | – | – | C=C(F)C(=O)Nc1cccc(-c2ncnc3[nH]cc(C(=O)OCC)c23)c1 [Example 5-1, Ethyl 4-{3-[(2-fluoroacryloyl)amino]phenyl}-7H-pyrrolo[2,3-d]pyrimidine-5-carboxylate]
1.5 nM | > 1500 nM | – | – | C=C(C)C(=O)Nc1cccc(-c2ncnc3[nH]cc(-c4cccc(F)c4Cl)c23)c1 [Example 20-5, N-{3-[5-(2-chloro-3-fluorophenyl)-7H-pyrrolo[2,3-d]pyrimidin-4-yl]phenyl}-2-methylprop-2-enamide]
– | – | 10 to 500 nM | > 500 nM | CCOC(=O)c1c[nH]c2ncnc(-c3cccc(NC(=O)/C(C)=C/c4ccccc4)c3)c12 [Example 5-43, ethyl 4-(3-{[(2E)-2-methyl-3-phenylprop-2-enoyl]amino}phenyl)-7H-pyrrolo[2,3-d]pyrimidine-5-carboxylate]
– | – | 10 to 500 nM | > 500 nM | CCOC(=O)c1c[nH]c2ncnc(-c3cccc(NC(=O)C4=CCCCC4)c3)c12 [Example 5-35, ethyl 4-{3-[(cyclohex-1-en-1-ylcarbonyl)amino]phenyl}-7H-pyrrolo[2,3-d]pyrimidine-5-carboxylate]
– | – | 10 to 500 nM | > 500 nM | C/C=C(/OC)C(=O)Nc1cccc(-c2ncnc3[nH]cc(C(=O)OCC)c23)c1 [Example 5-38, ethyl 4-(3-{[(2E)-2-methoxybut-2-enoyl]amino}phenyl)-7H-pyrrolo[2,3-d]pyrimidine-5-carboxylate]
